Assay results taken from paper PMC12748989 (Nature Communications, 2025).

Legend:
PBMC = settings: 12.5 µM

| SMILES | Average (percentage cell inhibition), Dmastoparan MDA-MB231 12.5uM (MDA-MB-231 cells) | Average (percentage cell inhibition), Mastoparan PBMC (PBMC) |
| --- | --- | --- |
| CC[C@H](C)[C@H](N)C(=O)N[C@@H](CC(N)=O)C(=O)N[C@@H](CC(C)C)C(=O)N[C@@H](CCCCN)C(=O)N[C@@H](C)C(=O)N[C@@H](CC(C)C)C(=O)N[C@@H](C)C(=O)N[C@@H](C)C(=O)N[C@@H](Cc1c[nH]c2ccccc12)C(=O)N[C@@H](C)C(=O)N[C@@H](CCCCN)C(=O)N[C@@H](CCCCN)C(=O)N[C@H](C(=O)N[C@@H](CC(C)C)C(N)=O)[C@@H](C)CC [W9] | 26.5648% | 6.531% |
| CC[C@H](C)[C@H](N)C(=O)N[C@@H](CC(N)=O)C(=O)N[C@@H](CC(C)C)C(=O)N[C@@H](CCCCN)C(=O)N[C@@H](C)C(=O)N[C@@H](CC(C)C)C(=O)N[C@@H](C)C(=O)N[C@@H](C)C(=O)N[C@@H](CC(C)C)C(=O)N[C@@H](Cc1c[nH]c2ccccc12)C(=O)N[C@@H](CCCCN)C(=O)N[C@@H](CCCCN)C(=O)N[C@H](C(=O)N[C@@H](CC(C)C)C(N)=O)[C@@H](C)CC [W10] | 49.5675% | 15.3863% |
| CC[C@H](C)[C@H](N)C(=O)N[C@@H](CC(N)=O)C(=O)N[C@@H](CC(C)C)C(=O)N[C@@H](CCCCN)C(=O)N[C@@H](C)C(=O)N[C@@H](CC(C)C)C(=O)N[C@@H](C)C(=O)N[C@@H](C)C(=O)N[C@@H](CC(C)C)C(=O)N[C@@H](C)C(=O)N[C@@H](Cc1c[nH]c2ccccc12)C(=O)N[C@@H](CCCCN)C(=O)N[C@H](C(=O)N[C@@H](CC(C)C)C(N)=O)[C@@H](C)CC [W11] | 74.1582% | 64.4734% |
| CC[C@H](C)[C@H](N)C(=O)N[C@@H](CC(N)=O)C(=O)N[C@@H](CC(C)C)C(=O)N[C@@H](CCCCN)C(=O)N[C@@H](C)C(=O)N[C@@H](CC(C)C)C(=O)N[C@@H](C)C(=O)N[C@@H](C)C(=O)N[C@@H](CC(C)C)C(=O)N[C@@H](C)C(=O)N[C@@H](CCCCN)C(=O)N[C@@H](Cc1c[nH]c2ccccc12)C(=O)N[C@H](C(=O)N[C@@H](CC(C)C)C(N)=O)[C@@H](C)CC [W12] | 64.637% | 73.0011% |
| CC[C@H](C)[C@H](N)C(=O)N[C@@H](CC(N)=O)C(=O)N[C@@H](CC(C)C)C(=O)N[C@@H](CCCCN)C(=O)N[C@@H](C)C(=O)N[C@@H](CC(C)C)C(=O)N[C@@H](C)C(=O)N[C@@H](C)C(=O)N[C@@H](CC(C)C)C(=O)N[C@@H](C)C(=O)N[C@@H](CCCCN)C(=O)N[C@@H](CCCCN)C(=O)N[C@@H](Cc1c[nH]c2ccccc12)C(=O)N[C@@H](CC(C)C)C(N)=O [W13] | 70.7641% | 24.9289% |
| CC[C@H](C)[C@H](N)C(=O)N[C@@H](CC(N)=O)C(=O)N[C@@H](CC(C)C)C(=O)N[C@@H](CCCCN)C(=O)N[C@@H](C)C(=O)N[C@@H](CC(C)C)C(=O)N[C@@H](C)C(=O)N[C@@H](C)C(=O)N[C@@H](CC(C)C)C(=O)N[C@@H](C)C(=O)N[C@@H](CCCCN)C(=O)N[C@@H](CCCCN)C(=O)N[C@H](C(=O)N[C@@H](Cc1c[nH]c2ccccc12)C(N)=O)[C@@H](C)CC [W14] | 56.1495% | 13.9862% |
| CC[C@H](C)[C@H](NC(=O)[C@H](CCCCN)NC(=O)[C@H](CCCCN)NC(=O)[C@H](C)NC(=O)[C@H](CC(C)C)NC(=O)[C@H](C)NC(=O)[C@H](C)NC(=O)[C@H](CC(C)C)NC(=O)[C@H](C)NC(=O)[C@H](CCCCN)NC(=O)[C@H](CC(C)C)NC(=O)[C@H](CC(N)=O)NC(=O)[C@@H](N)Cc1ccc(O)cc1)C(=O)N[C@@H](CC(C)C)C(N)=O [Y1] | 48.2987% | 14.8394% |
| CC[C@H](C)[C@H](N)C(=O)N[C@@H](Cc1ccc(O)cc1)C(=O)N[C@@H](CC(C)C)C(=O)N[C@@H](CCCCN)C(=O)N[C@@H](C)C(=O)N[C@@H](CC(C)C)C(=O)N[C@@H](C)C(=O)N[C@@H](C)C(=O)N[C@@H](CC(C)C)C(=O)N[C@@H](C)C(=O)N[C@@H](CCCCN)C(=O)N[C@@H](CCCCN)C(=O)N[C@H](C(=O)N[C@@H](CC(C)C)C(N)=O)[C@@H](C)CC [Y2] | 75.0702% | 57.84% |
| CC[C@H](C)[C@H](N)C(=O)N[C@@H](CC(N)=O)C(=O)N[C@@H](Cc1ccc(O)cc1)C(=O)N[C@@H](CCCCN)C(=O)N[C@@H](C)C(=O)N[C@@H](CC(C)C)C(=O)N[C@@H](C)C(=O)N[C@@H](C)C(=O)N[C@@H](CC(C)C)C(=O)N[C@@H](C)C(=O)N[C@@H](CCCCN)C(=O)N[C@@H](CCCCN)C(=O)N[C@H](C(=O)N[C@@H](CC(C)C)C(N)=O)[C@@H](C)CC [Y3] | 39.9685% | 5.097% |
| CC[C@H](C)[C@H](N)C(=O)N[C@@H](CC(N)=O)C(=O)N[C@@H](CC(C)C)C(=O)N[C@@H](Cc1ccc(O)cc1)C(=O)N[C@@H](C)C(=O)N[C@@H](CC(C)C)C(=O)N[C@@H](C)C(=O)N[C@@H](C)C(=O)N[C@@H](CC(C)C)C(=O)N[C@@H](C)C(=O)N[C@@H](CCCCN)C(=O)N[C@@H](CCCCN)C(=O)N[C@H](C(=O)N[C@@H](CC(C)C)C(N)=O)[C@@H](C)CC [Y4] | 34.4143% | 3.789% |
| CC[C@H](C)[C@H](N)C(=O)N[C@@H](CC(N)=O)C(=O)N[C@@H](CC(C)C)C(=O)N[C@@H](CCCCN)C(=O)N[C@@H](Cc1ccc(O)cc1)C(=O)N[C@@H](CC(C)C)C(=O)N[C@@H](C)C(=O)N[C@@H](C)C(=O)N[C@@H](CC(C)C)C(=O)N[C@@H](C)C(=O)N[C@@H](CCCCN)C(=O)N[C@@H](CCCCN)C(=O)N[C@H](C(=O)N[C@@H](CC(C)C)C(N)=O)[C@@H](C)CC [Y5] | 43.7779% | 12.3024% |
| CC[C@H](C)[C@H](N)C(=O)N[C@@H](CC(N)=O)C(=O)N[C@@H](CC(C)C)C(=O)N[C@@H](CCCCN)C(=O)N[C@@H](C)C(=O)N[C@@H](Cc1ccc(O)cc1)C(=O)N[C@@H](C)C(=O)N[C@@H](C)C(=O)N[C@@H](CC(C)C)C(=O)N[C@@H](C)C(=O)N[C@@H](CCCCN)C(=O)N[C@@H](CCCCN)C(=O)N[C@H](C(=O)N[C@@H](CC(C)C)C(N)=O)[C@@H](C)CC [Y6] | 22.8055% | -4.904% |
| CC[C@H](C)[C@H](N)C(=O)N[C@@H](CC(N)=O)C(=O)N[C@@H](CC(C)C)C(=O)N[C@@H](CCCCN)C(=O)N[C@@H](C)C(=O)N[C@@H](CC(C)C)C(=O)N[C@@H](Cc1ccc(O)cc1)C(=O)N[C@@H](C)C(=O)N[C@@H](CC(C)C)C(=O)N[C@@H](C)C(=O)N[C@@H](CCCCN)C(=O)N[C@@H](CCCCN)C(=O)N[C@H](C(=O)N[C@@H](CC(C)C)C(N)=O)[C@@H](C)CC [Y7] | 74.0703% | 16.9599% |
| CC[C@H](C)[C@H](N)C(=O)N[C@@H](CC(N)=O)C(=O)N[C@@H](CC(C)C)C(=O)N[C@@H](CCCCN)C(=O)N[C@@H](C)C(=O)N[C@@H](CC(C)C)C(=O)N[C@@H](C)C(=O)N[C@@H](Cc1ccc(O)cc1)C(=O)N[C@@H](CC(C)C)C(=O)N[C@@H](C)C(=O)N[C@@H](CCCCN)C(=O)N[C@@H](CCCCN)C(=O)N[C@H](C(=O)N[C@@H](CC(C)C)C(N)=O)[C@@H](C)CC [Y8] | 50.1841% | 22.0038% |
| CC[C@H](C)[C@H](N)C(=O)N[C@@H](CC(N)=O)C(=O)N[C@@H](CC(C)C)C(=O)N[C@@H](CCCCN)C(=O)N[C@@H](C)C(=O)N[C@@H](CC(C)C)C(=O)N[C@@H](C)C(=O)N[C@@H](C)C(=O)N[C@@H](Cc1ccc(O)cc1)C(=O)N[C@@H](C)C(=O)N[C@@H](CCCCN)C(=O)N[C@@H](CCCCN)C(=O)N[C@H](C(=O)N[C@@H](CC(C)C)C(N)=O)[C@@H](C)CC [Y9] | 27.288% | 11.8226% |
| CC[C@H](C)[C@H](N)C(=O)N[C@@H](CC(N)=O)C(=O)N[C@@H](CC(C)C)C(=O)N[C@@H](CCCCN)C(=O)N[C@@H](C)C(=O)N[C@@H](CC(C)C)C(=O)N[C@@H](C)C(=O)N[C@@H](C)C(=O)N[C@@H](CC(C)C)C(=O)N[C@@H](Cc1ccc(O)cc1)C(=O)N[C@@H](CCCCN)C(=O)N[C@@H](CCCCN)C(=O)N[C@H](C(=O)N[C@@H](CC(C)C)C(N)=O)[C@@H](C)CC [Y10] | 27.1013% | 11.2083% |
| CC[C@H](C)[C@H](N)C(=O)N[C@@H](CC(N)=O)C(=O)N[C@@H](CC(C)C)C(=O)N[C@@H](CCCCN)C(=O)N[C@@H](C)C(=O)N[C@@H](CC(C)C)C(=O)N[C@@H](C)C(=O)N[C@@H](C)C(=O)N[C@@H](CC(C)C)C(=O)N[C@@H](C)C(=O)N[C@@H](Cc1ccc(O)cc1)C(=O)N[C@@H](CCCCN)C(=O)N[C@H](C(=O)N[C@@H](CC(C)C)C(N)=O)[C@@H](C)CC [Y11] | 42.1135% | 16.0926% |
| CC[C@H](C)[C@H](N)C(=O)N[C@@H](CC(N)=O)C(=O)N[C@@H](CC(C)C)C(=O)N[C@@H](CCCCN)C(=O)N[C@@H](C)C(=O)N[C@@H](CC(C)C)C(=O)N[C@@H](C)C(=O)N[C@@H](C)C(=O)N[C@@H](CC(C)C)C(=O)N[C@@H](C)C(=O)N[C@@H](CCCCN)C(=O)N[C@@H](Cc1ccc(O)cc1)C(=O)N[C@H](C(=O)N[C@@H](CC(C)C)C(N)=O)[C@@H](C)CC [Y12] | 47.3973% | 22.3509% |
